System: Patients diagnosed with Alzheimer's Disease
Experiment: Adverse events and discontinuation in 5-month slow-titration trial
Format: in vivo, human
Method: Subjects in the Placebo group received 21 weeks (5 months) of placebo medication.
The safety of the drug was also monitored throughout the study. Blood samples for biochemistry and haematology and random urine sample for urinalysis were taken at each visit and at completion for all efficacy testing. Systolic and diastolic blood pressure were measured in the sitting position, pulse and vital signs were recorded at each visit.

## COc1ccc2c3c1O[C@H]1C[C@@H](O)C=C[C@@]31CCN(C)C2 [GAL, galantamine]
16 mg/day
  Serious adverse event Cardiac failure: number: 3
  Serious adverse event Dehydration: %: (1.1%)
  Serious adverse event Dehydration: number: 3
  Serious adverse event Diarrhea: %: (1.1%)
  Serious adverse event Diarrhea: number: 3
  Serious adverse event Dyspnea: %: (0.7%)
  Serious adverse event Dyspnea: number: 2
  Serious adverse event Fall: %: (0.4%)
  Serious adverse event Fall: number: 1
  Serious adverse event Gi haemorrhage: %: (0.0%)
  Serious adverse event Gi haemorrhage: number: 0
  Serious adverse event Injury: %: (0.4%)
  Serious adverse event Injury: number: 1
  Serious adverse event Myocardial infarction: %: (0.4%)
  Serious adverse event Myocardial infarction: number: 1
  Serious adverse event Nausea: %: (0.7%)
  Serious adverse event Nausea: number: 2
  Serious adverse event Pneumonia: %: (0.7%)
  Serious adverse event Pneumonia: number: 2
  Serious adverse event Sepsis: %: (0.0%)
  Serious adverse event Sepsis: number: 0
  Serious adverse event Surgical intervention: %: (1.1%)
  Serious adverse event Surgical intervention: number: 3
  Serious adverse event Syncope: %: (1.4%)
  Serious adverse event Syncope: number: 4
  Serious adverse event Thrombophlebitis deep: %: (0.0%)
  Serious adverse event Thrombophlebitis deep: number: 0
  Serious adverse event Transient ischemic attack: %: (0.7%)
  Serious adverse event Transient ischemic attack: number: 2
  Serious adverse event Urinary tracq infection: %: (0.7%)
  Serious adverse event Urinary tracq infection: number: 2
  Serious adverse event Vomiting: %: (0.7%)
  Serious adverse event Vomiting: number: 2
  Syncope: % of patients: (1.8%)
  Syncope: number of patients: 5
  Total discontinued (DC): %: 22%
  Total discontinued (DC): N: 60
  Total patients with any SAE: %: (10.0%)
  Total patients with any SAE: number: 28
  Urinary tract infection: % of patients: (8.2%)
  Urinary tract infection: number of patients: 23
  Vomiting: % of patients: (6.1%)
  Vomiting: number of patients: 17
  Weight decrease: % of patients: (5.4%)
  Weight decrease: number of patients: 15
24 mg/day
  Agitation: % of patients: (8.1%)
  Agitation: number of patients: 22
  Anorexia: % of patients: (8.8%)
  Anorexia: number of patients: 24
  Bradycardia: % of patients: (2.9%)
  Bradycardia: number of patients: 8
  Convulsions: % of patients: (0.4%)
  Convulsions: number of patients: 1
  DC due to adverse event: %: 10%
  DC due to adverse event: N: 27
  DC due to inefficacy: %: 1%
  DC due to inefficacy: N: 2
  Depression: % of patients: (8.%)
  Depression: number of patients: 22
  Diarrhea: % of patients: (5.5%)
  Diarrhea: number of patients: 15
  Dizziness: % of patients: (7.0%)
  Dizziness: number of patients: 19
  Dyspepsia: % of patients: (5.5%)
  Dyspepsia: number of patients: 15
  Edema peripheral: % of patients: (2.6%)
  Edema peripheral: number of patients: 7
  Fall: % of patients: (4.4%)
  Fall: number of patients: 12
  Fatigue: % of patients: (4.8%)
  Fatigue: number of patients: 13
  Headache: % of patients: (4.8%)
  Headache: number of patients: 13
  Injury: % of patients: (5.9%)
  Injury: number of patients: 16
  Muscle weakness: % of patients: (0.4%)
  Muscle weakness: number of patients: 1
  Nausea: % of patients: (16.5%)
  Nausea: number of patients: 45
  Rhinitis: % of patients: (4.0%)
  Rhinitis: number of patients: 11
  Serious adverse event Abdominal pain: %: (0.0%)
  Serious adverse event Abdominal pain: number: 0
  Serious adverse event Agitation: %: (0.0%)
  Serious adverse event Agitation: number: 0
  Serious adverse event Asthenia: %: (0.4%)
  Serious adverse event Asthenia: number: 1
  Serious adverse event Basal cell carcinoma: %: (0.7%)
  Serious adverse event Basal cell carcinoma: number: 2
  Serious adverse event Breast neoplasm female: %: (0.0%)
  Serious adverse event Breast neoplasm female: number: 0
  Serious adverse event Cardiac failure: %: (0.0%)
  Serious adverse event Cardiac failure: number: 0
  Serious adverse event Dehydration: %: (0.0%)
  Serious adverse event Dehydration: number: 0
  Serious adverse event Diarrhea: %: (0.0%)
  Serious adverse event Diarrhea: number: 0
  Serious adverse event Dyspnea: %: (1.1%)
  Serious adverse event Dyspnea: number: 3.
  Serious adverse event Fall: %: (1.1%)
  Serious adverse event Fall: number: 3
  Serious adverse event Gi haemorrhage: %: (0.7%)
  Serious adverse event Gi haemorrhage: number: 2
  Serious adverse event Injury: %: (1.8%)
  Serious adverse event Injury: number: 5
  Serious adverse event Myocardial infarction: %: (0.4%)
  Serious adverse event Myocardial infarction: number: 1
  Serious adverse event Nausea: %: (0.0%)
  Serious adverse event Nausea: number: 0
  Serious adverse event Pneumonia: %: (1.1%)
  Serious adverse event Pneumonia: number: 3
  Serious adverse event Sepsis: %: (0.0%)
  Serious adverse event Sepsis: number: 0
  Serious adverse event Surgical intervention: %: (0.0%)
  Serious adverse event Surgical intervention: number: 0
  Serious adverse event Syncope: %: (1.8%)
  Serious adverse event Syncope: number: 5
  Serious adverse event Thrombophlebitis deep: %: (0.7%)
  Serious adverse event Thrombophlebitis deep: number: 2
  Serious adverse event Transient ischemic attack: %: (0.0%)
  Serious adverse event Transient ischemic attack: number: 0
  Serious adverse event Urinary tracq infection: %: (0.0%)
  Serious adverse event Urinary tracq infection: number: 0
  Serious adverse event Vomiting: %: (0.4%)
  Serious adverse event Vomiting: number: 1
  Syncope: % of patients: (3.3%)
  Syncope: number of patients: 9
  Total discontinued (DC): %: 22%
  Total discontinued (DC): N: 61
  Total patients with any SAE: %: (12.8%)
  Total patients with any SAE: number: 35
  Urinary tract infection: % of patients: (8.1%)
  Urinary tract infection: number of patients: 22
  Vomiting: % of patients: (9.9%)
  Vomiting: number of patients: 27
  Weight decrease: % of patients: (4.8%)
  Weight decrease: number of patients: 13

Reference: patent US20030139391A1 (priority 2000, published 2003)
